In patent publication US7678778B2 (priority 2004, dated 2010):

Test system: B16 Melanoma
Details: in vivo

Structure (SMILES) | T-C [days]
O=P1(N(CCCl)CCCl)NCCCO1 (centres unmarked) [Cyclophosphamide, cyclophosphamide] | 27
O=P1(NCCCl)OCCCN1CCCl (centres unmarked) [Ifosfamide] | 18
